The values below come from patent US20050059585A1, “Methionine aminopeptidase-2 inhibitors and methods of use thereof” (Praecis Pharmaceuticals Inc., priority 2000, published 2005).

In experiment [1] the test system is human umbilical vein endothelial cells (HUVEC). Description: human endothelial cell growth assay (Huvec assay). Format: cell-based. To be noted: Homo sapiens, HUVEC; read-out: IC50 (pM), Huvec Assay. As to the method: For the human endothelial cell growth assay, human umbilical vein endothelial cells (HUVEC) were maintained in Clonetics endothelial growth medium (EGM) in a 37° C. humidified incubator. Cells were detached with trypsin and pelleted by centrifugation at 300×g for 5 minutes at room temperature. HUVEC were added to 96-well plates at 5,000 cells/well. After incubating for 6 hours, the medium was replaced with 0.2 ml fresh EGM supplemented with 0.5 nM bFGF and the desired concentration of test angiogenesis inhibitor compound. Test angiogenesis inhibitor compounds were initially dissolved in ethanol at stock concentrations of either 10 mM or 0.1 mM, and subsequently diluted in EGM to obtain concentrations from […] to 10 μM. After 48 hours at 37° C., the medium was replaced with fresh bFGF-supplemented EGM and test angiogenesis inhibitor compound. Following incubation for an additional 48 hours at 37° C. MTT (3-[4,5-dimethylthiazol-2-yl]-2,5-diphenyl-tetrazolium bromide) was added to 1 mg/ml. After 2-4 hours at 37° C. the medium was replaced with 0.1 ml/well isopropanol. The plates were placed on a shaker for 15 minutes at room temperature and analyzed in a Labsystems Multiskan plate spectrophotometer at an optical density of 570 nm.

The subject of experiment [2] is bovine aortic endothelial cell. In words: bovine aortic endothelial cell growth assay (Baec assay). Format: cell-based. As to conditions: Bos taurus, BAEC; read-out: IC50 (pM), Baec Assay. As to the method:
The angiogenesis inhibitor compounds of the invention were tested for their ability to modulate human endothelial cell growth and for their ability to modulate the activity of MetAP2. The MetAP2 enzyme assay was performed essentially as described in Turk, B. et al. (1999) Chem. & Bio. 6: 823-833, the entire contents of which are incorporated herein by reference. The bovine aortic endothelial cell growth assay (Baec assay) was performed essentially as described in Turk, B. et al. (supra), the entire contents of which are incorporated herein by reference.

A further experiment relates to SU-DHL-16. Description: Inhibition of GC derived B cell lymphoma lines in culture. As to conditions: Homo sapiens, SU-DHL-16, 120 h, read-out: Growth Inhibition Relative to Vehicle Control, GI50%. It counts as cell-based.
A further experiment concerns Pfeiffer. The description is as above. It counts as cell-based.
In the next experiment the test system is D10. The description is as above. To be noted: D10, FL. It counts as cell-based.
The subject of another experiment is H2. Described as above. It counts as cell-based.
A further experiment has as its system Ramos. The experiment is described as above. Format: cell-based. As to conditions: Burkitt's lymphoma cell line, 0.01-100 nM.
The test system of the next experiment is ST486. Described as above. Format: cell-based.
Experiment [3] concerns human lymphoblast SR cells. Description: Inhibition of SR cell line in culture, 3H-thymidine incorporation assay. Format: cell-based. As to the method: […] Incubations were conducted for 3, 5 or 6 days after which cell proliferation relative to vehicle treatment was determined using a ^3H-thymidine incorporation assay. Medium was replaced and fresh drug was added on day 3 for the 5 and 6 day assays.
Background: Uptake of a labelled nucleoside into DNA is a usual measure of proliferation.

Another experiment concerns SR lymphoma tumor. Description: In vivo efficacy in SR lymphoma cell tumors grown in mice. How it is done: SR lymphoma tumor cells were injected subcutaneously into SCID/NCr female mice. Tumors were measured using a caliper every 3-4 days beginning on day 12 post-implantation of tumor cells. Animals were weighed routinely on the same days as tumor measurments and monitored for clinical signs of any adverse, drug-related side effects. Treatment with Compound 5 or vehicle began on Day 12 for 5 weeks and ended on Day 44. The endpoints evaluated were optimal percent treated/control (% T/C) and tumor growth delay measured at multiple timepoints during the study.

Each structure is given as a SMILES string.

As usually defined, the IC50 is the concentration that inhibits the measured activity by half. One may read the GI50 as the concentration giving 50% growth inhibition. For `CO[C@@H]1[C@H](OC(=O)N[C@@H](C(N)=O)C(C)C)CC[C@]2(CO2)[C@H]1[C@@]1(C)O[C@@H]1CC=C(C)C` [Example 5, (1-Carbamoyl-2-methyl-propyl)-carbamic acid-(3R, 4S, 5S, 6R )-5-methoxy-4-[(2R, 3R)-2-methyl-3-(3-methyl-but-2-enyl)-oxiranyl]-1-oxa-spiro[2.5]oct-6-yl ester], the IC50 in experiment [1] stood at 93 pM; in experiment [2], 46 pM. Also, the GI50 is 1.9 nM in the experiment with SU-DHL-16; 0.27 nM with Pfeiffer (Homo sapiens, read-out: Growth Inhibition Relative to Vehicle Control, GI50%); 0.42 nM with D10 (B-cell, estimated, read-out: Growth Inhibition Relative to Vehicle Control, GI50%); 0.16 nM with H2 (B-cell, read-out: Growth Inhibition Relative to Vehicle Control, GI50%); 0.22 nM in the experiment with ST486 (Homo sapiens, ST486, read-out: Growth Inhibition Relative to Vehicle Control, GI50%); 0.5 nM in experiment [3] (Homo sapiens, SR, 5 and 6 day assays). In addition, the “Growth Inhibition Relative to Vehicle Control, Maximum Inhibition” value is listed as 54% in the experiment with Pfeiffer (DLBCL, 0.01-100 nM, five or six days); 59% in the experiment with D10 (0.01-100 nM, five or six days); 59% in the experiment on H2 (H2, FL, 0.01-100 nM, five or six days); 53% in the experiment with ST486 (ST486, BL, 0.01-100 nM, five or six days). For the same compound, the “inhibition of proliferation (in words)” value in the experiment on Ramos is reported as “inhibited the proliferation of all lymphoma lines tested except for the Ramos line”. For the same compound, the “inhibition of proliferation of the SR cell line” value in [3] (concentrations from 1-100 nM, relative to vehicle) is on record as 59-75%. Besides, the Maximal inhibition result in [3] (five or six days of exposure) was “greater than 90%”. The “optimal % T/C” value in the experiment on SR lymphoma tumor (oral route, 15 mg/kg) is given as 48%; in the experiment on SR lymphoma tumor (oral route, 30 mg/kg), 43%; in the experiment with SR lymphoma tumor (subcutaneously, 15 mg/kg), 70%; in the experiment on SR lymphoma tumor (subcutaneously, 30 mg/kg) it was 50%. Further, the tumor growth delay in the experiment on SR lymphoma tumor (orally, 15 mg/kg) is on record as 29%; in the experiment on SR lymphoma tumor (orally, 30 mg/kg) it was 28%; in the experiment on SR lymphoma tumor (subcutaneous route, 15 mg/kg), 18%; in the experiment with SR lymphoma tumor (subcutaneous route, 30 mg/kg), 19%.
